Measurements published in ChEMBL document CHEMBL3400067, “Synthesis, antinociceptive and anti-inflammatory effects of porphyrins” (Bioorg Med Chem, 2015).
Calls of active or inactive are those of the source. No cut-off for these calls is given here.

Tests used:
[1] = system: Mus musculus; assay: Anti-arthritic activity in po dosed CD-1 mouse assessed as inhibition of carrageenan-kaolin-induced arthritis at treated for 8 days relative to vehicle treated control; format: functional, organism-based; conditions: TDE = time-dependent effect
[2] = Antiinflammatory activity against Wistar rat erythrocytes assessed as inhibition of heat-induced hemolysis after 15 mins by membrane stabilizing activity assay; format: functional, cell-based; conditions: erythrocyte
[3] = system: Mus musculus; assay: Antinociceptive activity against CD-1 mouse assessed as licking of hind paw or jumping at 100 mg/kg, po after 90 mins; format: functional; conditions: CD-1, 1.5 h
[4] = system: Mus musculus; assay: Antiinflammatory activity against carrageenan-kaolin-induced arthritis CD-1 mouse model assessed as decrease in PGE2 level in serum at 200 mg/kg, po for 8 days relative to vehicle treated control; format: functional; conditions: CD-1, Serum, 192 h
[5] = system: Mus musculus; assay: Antiinflammatory activity in CD-1 mouse ear edema model assessed as reduction in TPA-induced edema size at 200 mg/kg, po administered 30 mins prior to TPA-challenge for every 48 hrs for 10 days relative to vehicle treated control; format: functional; conditions: CD-1, Ear
[6] = system: Mus musculus; assay: Antinociceptive activity in CD-1 mouse assessed as licking time during phase 1 at 50 to 200 mg/kg, po administered 1 hr prior to formalin-challenge; format: functional, organism-based
[7] = system: Mus musculus; assay: Antiinflammatory activity against carrageenan-kaolin-induced arthritis CD-1 mouse model assessed as decrease in NO level in serum at 200 mg/kg, po for 8 days relative to vehicle treated control; format: functional; conditions: CD-1, Serum, 192 h
[8] = system: Mus musculus; assay: Anti-arthritic activity in CD-1 mouse assessed as inhibition of carrageenan-kaolin-induced arthritis at 200 mg/kg, po for 8 days relative to vehicle treated control; format: functional; conditions: CD-1, 192 h
[9] = system: Mus musculus; assay: Anti-arthritic activity against carrageenan-kaolin-induced arthritis CD-1 mouse model assessed as decrease in spleen index at 200 mg/kg, po for 8 days relative to vehicle treated control; format: functional; conditions: CD-1, Spleen, 192 h
[10] = system: Mus musculus; assay: Antiinflammatory activity in CD-1 mouse ear edema model assessed as reduction in TPA-induced edema size at 2 mg/ear, topically administered 30 mins prior to TPA-challenge measured after 6 hrs relative to control; format: functional
[11] = system: Mus musculus; assay: Anti-arthritic activity against carrageenan-kaolin-induced arthritis CD-1 mouse model assessed as decrease in IL-6 level in serum at 200 mg/kg, po for 8 days relative to vehicle treated control; format: functional
[12] = system: Mus musculus; assay: Anti-arthritic activity against carrageenan-kaolin-induced arthritis CD-1 mouse model assessed as decrease in TNF-alpha level in serum at 200 mg/kg, po for 8 days relative to vehicle treated control; format: functional
[13] = system: Mus musculus; assay: Anti-arthritic activity against carrageenan-kaolin-induced arthritis CD-1 mouse model assessed as decrease in IL-1beta level in serum at 200 mg/kg, po for 8 days relative to vehicle treated control; format: functional
[14] = system: Mus musculus; assay: Anti-arthritic activity against carrageenan-kaolin-induced arthritis CD-1 mouse model assessed as decrease in spleen index at 1 mg/kg, po for 8 days relative to vehicle treated control; format: functional; conditions: CD-1, Spleen, 192 h
[15] = system: Mus musculus; assay: Anti-arthritic activity against carrageenan-kaolin-induced arthritis CD-1 mouse model assessed as decrease in IL-6 level in serum at 1 mg/kg, po for 8 days relative to vehicle treated control; format: functional
[16] = system: Mus musculus; assay: Anti-arthritic activity against carrageenan-kaolin-induced arthritis CD-1 mouse model assessed as decrease in TNF-alpha level in serum at 1 mg/kg, po for 8 days relative to vehicle treated control; format: functional
[17] = system: Mus musculus; assay: Anti-arthritic activity in CD-1 mouse assessed as inhibition of carrageenan-kaolin-induced arthritis at 1 mg/kg, po for 8 days relative to vehicle treated control; format: functional; conditions: CD-1, 192 h
[18] = system: Mus musculus; assay: Antiinflammatory activity against carrageenan-kaolin-induced arthritis CD-1 mouse model assessed as decrease in PGE2 level in serum at 1 mg/kg, po for 8 days relative to vehicle treated control; format: functional; conditions: CD-1, Serum, 192 h
[19] = system: Mus musculus; assay: Antiinflammatory activity against carrageenan-kaolin-induced arthritis CD-1 mouse model assessed as decrease in NO level in serum at 1 mg/kg, po for 8 days relative to vehicle treated control; format: functional; conditions: CD-1, Serum, 192 h
[20] = system: Mus musculus; assay: Anti-arthritic activity against carrageenan-kaolin-induced arthritis CD-1 mouse model assessed as decrease in IL-1beta level in serum at 1 mg/kg, po for 8 days relative to vehicle treated control; format: functional
[21] = system: Mus musculus; assay: Antiinflammatory activity in po dosed CD-1 mouse ear edema model assessed as reduction in TPA-induced edema size administered 30 mins prior to TPA-challenge for every 48 hrs for 10 days relative to vehicle treated control; format: functional, organism-based
[22] = system: Mus musculus; assay: Antiinflammatory activity in CD-1 mouse ear edema model assessed as reduction in TPA-induced edema size at 8 mg/kg, po administered 30 mins prior to TPA-challenge for every 48 hrs for 10 days relative to vehicle treated control; format: functional; conditions: CD-1, Ear

Row | SMILES | Activity [1] | EC50 [2] | inhibition in vivo at 100 mg/kg [3] | inhibition in vivo at 200 mg/kg [4] | inhibition in vivo at 200 mg/kg [5] | Activity [6] | inhibition in vivo at 200 mg/kg [7] | inhibition in vivo at 200 mg/kg [8] | inhibition in vivo at 200 mg/kg [9] | inhibition (INH) [10] | further results
1 | Fc1ccc(-c2c3nc(c(-c4ccc(F)cc4)c4ccc([nH]4)c(-c4ccc(F)cc4)c4nc(c(-c5ccc(F)cc5)c5ccc2[nH]5)C=C4)C=C3)cc1 | tde | 395 µM | 20% | 41% | 36% | Active | 44% | 30% | 20% | 38% | 
2 | Brc1ccc(-c2c3nc(c(-c4ccc(Br)cc4)c4ccc([nH]4)c(-c4ccc(Br)cc4)c4nc(c(-c5ccc(Br)cc5)c5ccc2[nH]5)C=C4)C=C3)cc1 | tde | 342 µM | 32% | 32% | 23% | Active | 36% | 27% | 17% | 67% | fold change (FC) [11]: 1.3; fold change (FC) [12]: 1.1; fold change (FC) [13]: 1.6
3 | COc1ccc2cc([C@H](C)C(=O)O)ccc2c1 [NAPROXEN] |  | 756 µM | 36% |  |  |  |  |  |  |  | 
4 | CN(Cc1cnc2nc(N)nc(N)c2n1)c1ccc(C(=O)N[C@@H](CCC(=O)O)C(=O)O)cc1 [METHOTREXATE] | tde |  |  |  |  |  |  |  |  |  | inhibition in vivo at 1 mg/kg [14]: 38%; fold change (FC) [15]: 2.8; fold change (FC) [16]: 2.1; inhibition in vivo at 1 mg/kg [17]: 49%; inhibition in vivo at 1 mg/kg [18]: 66%; inhibition in vivo at 1 mg/kg [19]: 76%; fold change (FC) [20]: 2
5 | COc1ccc2c(c1)c(CC(=O)O)c(C)n2C(=O)c1ccc(Cl)cc1 [INDOMETHACIN] |  |  |  |  |  |  |  |  |  | 76% | inhibition [21]: Dose-dependent effect; inhibition in vivo at 8 mg/kg [22]: 55%
